Laboratory results taken from patent publication US20220304945A1, “METHODS OF TREATING METABOLIC SYNDROME RELATED CONDITIONS USING RETINOIC ACID RECEPTOR AGONISTS” (Cornell University, priority 2014, published 2022).

Biological target: T1, RARβ2 (Homo sapiens, UniProt P10826)
T1 sequence (P10826 1-448 isoform P10826-2): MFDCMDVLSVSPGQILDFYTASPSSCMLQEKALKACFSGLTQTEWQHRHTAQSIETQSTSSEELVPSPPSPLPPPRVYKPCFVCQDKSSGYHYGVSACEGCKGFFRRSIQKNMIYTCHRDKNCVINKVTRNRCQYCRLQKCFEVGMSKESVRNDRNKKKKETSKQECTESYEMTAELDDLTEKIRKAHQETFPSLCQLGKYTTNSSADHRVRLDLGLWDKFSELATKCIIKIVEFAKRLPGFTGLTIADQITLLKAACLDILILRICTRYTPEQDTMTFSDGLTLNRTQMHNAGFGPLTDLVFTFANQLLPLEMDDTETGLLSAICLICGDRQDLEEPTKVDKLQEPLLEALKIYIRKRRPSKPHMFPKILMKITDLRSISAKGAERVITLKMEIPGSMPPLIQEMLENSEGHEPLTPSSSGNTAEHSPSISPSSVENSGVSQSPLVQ
Test: not given
Parameters: expressed in transfected cells
Settings: from Table 1 and Table 2 of WO2007/009083; cited from earlier work

First: CCCCOCCOc1ccc(-c2ccc(C(=O)O)cc2)cc1 [Compound 18]
Second: CCCCCCOc1ccc(-c2ccc(C(=O)O)cc2)cc1 [Compound 12]
The “% Eff.” value of the first is higher: 108% for the first, 72% for the second.

Going from `CCCCCCCCc1ccc(-c2ccc(C(=O)Nc3ccc(C)cn3)cc2)cc1` [Compound 29] to `CCCCCCc1ccc(-c2ccc(C(=O)Nc3ccc(C)cn3)cc2)cc1` [Compound 63], the “% Eff.” value falls from 78% to 36%.

Compared with `CCCCCCCCCc1ccc(-c2ccc(C(=O)O)cc2)cc1` [Compound 2], `CCCCCCCCc1ccc(-c2ccc(C(=O)O)cc2)cc1` [Compound 53] is lower in “% Eff.” value: 126% for the first, 99% for the second.

First: CCCCCCCOc1ccc(-c2ccc(C(=O)O)cc2)cc1 [Compound 24]
Second: CCCCCCCCOc1ccc(-c2ccc(C(=O)O)cc2)cc1 [Compound 32]
The “% Eff.” value of the first is lower: 58% for the first, 70% for the second.

Going from `CCCCCCCCc1ccc(-c2ccc(C(=O)NS(C)(=O)=O)cc2)cc1` [Compound 60] to `CCCCCCCc1ccc(-c2ccc(C(=O)NN)cc2)cc1` [Compound 45], the “% Eff.” value rises from 51% to 78%.

Compared with `CCCCCCCCOc1ccc(-c2ccc(C(=O)NCCC#N)cc2)cc1` [Compound 51], `CCCCCCCCCCOc1ccc(-c2ccc(C(=O)O)cc2)cc1` [Compound 20] is higher in “% Eff.” value: 59% for the first, 98% for the second.

Compared with `CCCCCCOc1cc(C)c(-c2ccc(C(=O)O)cc2)cc1C` [Compound 11], `CCCCOCCOc1cc(C)c(-c2ccc(C(=O)O)cc2)cc1C` [Compound 44] is lower in “% Eff.” value: 78% for the first, 41% for the second.

Going from `CCCC1CCCC(c2ccc(-c3ccc(C(=O)O)cc3)cc2)CC1` (stereo not drawn) [Compound 49] to `O=C(O)c1ccc(-c2ccc(OCCC=C(C3CC3)C3CC3)cc2)cc1` [Compound 47], the “% Eff.” value falls from 59% to 58%.

First: CCCCCc1ccc(-c2ccc(C(=O)O)cc2)cc1 [Compound 4]
Second: CCCCCCc1ccc(-c2ccc(C(=O)O)cc2)cc1 [Compound 16]
The “% Eff.” value of the first is higher: 44% for the first, 37% for the second.

First: Cc1sc(-c2ccc(C(=O)O)cc2)nc1OCC(=O)NC1CCC(C)CC1 (stereo not drawn) [Compound 58]
Second: Cc1sc(-c2ccc(C(=O)O)cc2)nc1OCC(=O)NC1CCCC1 [Compound 61]
The “% Eff.” value of the first is higher: 66% for the first, 39% for the second.

Going from `CCCCOCCOc1nc(-c2ccc(C(=O)O)cc2)sc1C` [Compound 27] to `CCCOCCOc1nc(-c2ccc(C(=O)O)cc2)sc1C` [Compound 33], the “% Eff.” value rises from 95% to 98%.

First: CCCCCCNC(=O)COc1nc(-c2ccc(C(=O)O)cc2)sc1C [Compound 13]
Second: CCCCNC(=O)COc1nc(-c2ccc(C(=O)O)cc2)sc1C [Compound 62]
The “% Eff.” value of the first is higher: 85% for the first, 37% for the second.

First: CCCCCCCCc1ccc(-c2ccc(C(=O)n3cnc(NC(C)=O)n3)cc2)cc1 [Compound 15]
Second: CCCCCCCCc1ccc(-c2ccc(C(=O)n3ccnc3)cc2)cc1 [Compound 8]
The “% Eff.” value of the first is lower: 76% for the first, 79% for the second.

First: CCCCCCCc1ccc(-c2ccc(C(=O)O)c(C)c2)cc1 [Compound 52]
Second: CCCCCCCCc1ccc(-c2ccc(C(=O)O)c(C)c2)cc1 [Compound 55]
The “% Eff.” value of the first is lower: 45% for the first, 84% for the second.

Compared with `CCCCCCCCOc1ccc(-c2ccc(C(=O)NCCc3ccccn3)cc2)cc1` [Compound 54], `CCCCCCCc1ccc(-c2ccc(C(=O)NCCc3ccccn3)cc2)cc1` [Compound 59] is lower in “% Eff.” value: 39% for the first, 35% for the second.

First: CCCCc1ccc(-c2ccc(C(=O)O)cc2)cc1 [Compound 26]
Second: CCCCCCCc1ccc(-c2ccc(C(=O)O)cc2)cc1 [Compound 10]
The “% Eff.” value of the first is lower: 36% for the first, 64% for the second.

First: Cc1sc(-c2ccc(C(=O)O)cc2)nc1OCC(=O)NC(C)CCC(C)C (stereo not drawn) [Compound 57]
Second: CCCCC(CC)COc1nc(-c2ccc(C(=O)O)cc2)sc1C (stereo not drawn) [Compound 46]
The “% Eff.” value of the first is higher: 77% for the first, 54% for the second.

Going from `Cc1sc(-c2ccc(C(=O)O)cc2)nc1OCC(=O)NC1CCCCCC1` [Compound 56] to `CCCCCCCc1ccc(-c2ccc(C(=O)O)cc2)cc1` [Compound 9], the “% Eff.” value falls from 105% to 76%.

Compared with `CCCCCCCc1ccc(-c2ccc(C(=O)O)cc2F)cc1` [Compound 22], `CCCCCCCCc1ccc(-c2ccc(C(=O)O)cc2F)cc1` [Compound 38] is higher in “% Eff.” value: 36% for the first, 70% for the second.

Going from `CCCCCCCCc1ccc(-c2ccc(C(=O)O)cc2)cc1` [Compound 35] to `CCCCCCCCc1ccc(-c2ccc(C(=O)C(=O)O)cc2)cc1` [Compound 31], the “% Eff.” value falls from 83% to 80%.

Going from `CCCCCCCCN1CCN(c2ccc(C(=O)O)cc2)CC1` [Compound 50] to `CCCCCCCCc1ccc(-c2ccc(C(=O)O)cc2)cc1` [Compound 6], the “% Eff.” value rises from 85% to 104%.

Going from `CC(C)CCCCOc1ccc(-c2ccc(C(=O)O)cc2)cc1` [Compound 25] to `CCCCCCCc1ccc(-c2ccc(C(=O)NO)cc2)cc1` [Compound 37], the “% Eff.” value falls from 65% to 49%.

For `CCCCCCCc1ccc(-c2ccc(C(=O)O)c(F)c2)cc1` [Compound 36], the “% Eff.” value is listed as 42%.

First: CCCCCCCc1ccc(-c2ccc(C(=O)O)c(C)c2)cc1 [Compound 52]
Second: CCCCCCCCc1ccc(-c2ccc(C(=O)O)cc2F)cc1 [Compound 38]
The pEC50 of the first is lower: 6.41 for the first, 6.81 for the second.

First: CCCCc1ccc(-c2ccc(C(=O)O)cc2)cc1 [Compound 26]
Second: CCCCCCCCc1ccc(-c2ccc(C(=O)n3ccnc3)cc2)cc1 [Compound 8]
The pEC50 of the first is lower: 7.15 for the first, 7.66 for the second.

Test system: mouse ES cells (RARβ, Cyp26a1 transcripts)
Test: RT-PCR of RA-responsive genes in WT and RARβ KO ES cells
Assay type: cell-based
Settings: WT ES cells, presence of RA vs untreated
Method: C57BL/6 RARβ heterozygous mice were provided by Dr. Pierre Chambon (Strasbourg-Cedex, France) (26). Homozygous RARβ-null mice were obtained following mating of RARβ heterozygous mice. Blastocysts were harvested on day E3.5 and individually cultured on ES cell medium as previously described (28).
Various markers for endodermal (day 5), pancreatic progenitor (day 11), endocrine progenitor (day 14) and endocrine (day 17) differentiation were analyzed by semi-quantitative RT-PCR in J1 wild-type and RARβ KO ESCs. Primers were designed around introns whenever possible. Total RNA extraction, semi-quantitative and quantitative PCR reactions were performed as previously described (18). Amplified PCR products were resolved on 1.5% agarose gels and visualized by staining with ethidium bromide. PCR bands were sequenced for verification of the correct amplicon. Quantitation of semi-quantitative gels was performed using ImageJ software (National Institutes of Health) from three experimental biological repeats.

For `CC1=C(/C=C/C(C)=C/C=C/C(C)=C/C(=O)O)C(C)(C)CCC1` [RA, all trans-retinoic acid], the “RARβ signal (RT-PCR)” value was “stronger RARβ signal”.

Same assay, conditions: WT and RARβ KO ES cells, RA-treated

In the case of `CC1=C(/C=C/C(C)=C/C=C/C(C)=C/C(=O)O)C(C)(C)CCC1` [RA, all trans-retinoic acid], the “Cyp26a1 expression (RT-PCR)” value is reported as “observed in both WT and RARβ KO ES cells”.
